# Measurements: patent US20200291100A1, “TREATMENT OF AGE-RELATED AND MITOCHONDRIAL DISEASES BY INHIBITION OF HIF-1 ALPHA FUNCTION” (President and Fellows of Harvard College, priority 2012, published 2020)
# Experiments:
# C2C12 myoblasts = assay: DMOG treatment of C2C12 myoblasts, mtDNA content and ETC gene expression; format: cell-based, mouse; settings: 16 h
# Protocol: To test if the normal hypoxic response reproduces the effect of a SIRT1 deletion by causing genome asynchrony, C2C12 myoblasts were grown under hypoxic conditions (1% oxygen) or treated with dimethyloxaloylglycine (DMOG), a HIFα prolyl hydroxylase inhibitor that stabilizes HIF.
# C2C12 cell line (ATCC) was cultured in low glucose Dulbecco's modified eagle medium (DMEM) (Invitrogen) supplemented with 10% FBS (Invitrogen) and a mix of antibiotic and antimycotic (Invitrogen). To inhibit SIRT1, cells were treated the vehicle (0.001% DMSO) or 10 μM EX-527 (Tocris) for 12 h. C2C12 myoblasts were infected with an empty or SIRT1 adenovirus as described before (Gerhart-Hines et al., 2007) and the media was replaced with fresh DMEM for additional 48 h, after that the cells were treated as described before. To test the effects of hypoxia and HIFα stabilization in genome asyncrony, C2C12 myoblasts were exposed to 1% oxygen for 16 h or treated with the vehicle (0.001% DMSO) or DMOG (Cayman) for the same period of time.
# RNA from skeletal muscle tissue and C2C12 cells were extracted with RNeasy mini kit (Qiagen) according to the instructions and quantified using the NanoDrop 1000 spectrophotometer (Thermo Scientific). cDNA was synthesized with the iSCRIP cDNA synthesis kit (BioRad) using 600 ng of RNA. Quantitative RT-PCR reactions were performed using 1 μM of primers and LightCycler® 480 SYBR Green Master (Roche) on an LightCycler® 480 detection system (Roche). Calculations were performed by a comparative method (2-ΔCT) using 18S as an internal control. For mtDNA analysis, total DNA was extracted with DNeasy blood and tissue kit (Qiagen). mtDNA was amplified using primers specific for the mitochondrial cytochrome c oxidase subunit 2 (COX2) gene and normalized to genomic DNA by amplification of the ribosomal protein s18 (rps18) nuclear gene. Primers were designed using the IDT software (IDT) and the primer sequences can be found in Table 1.
# TFAM promoter = TFAM promoter luciferase assay in primary WT myoblasts treated with DMOG; format: cell-based, mouse; settings: DMOG versus DMSO
# Protocol: TFAM promoter, VHL promoter, HRE and c-Myc activity were determined using a luciferase-based system. Luciferase activity was measured using the Dual-Luciferase Reporter Assay System (Promega) with Renilla as the reference.
# TFAM promoter activity was evaluated using a TFAM promotes-luc plasmid. A fragment of the mouse Tfam promoter (1.4 kb upstream of the coding sequence) was cloned into a pGL4.15 vector (Promega). Luciferase activity was measured using the Dual-Luciferase Reporter Assay System (Promega) with Renilla as the reference 48 h after transfection.
# c-Myc was previously shown to directly bind to the TFAM promoter in cancer cells (Li et al., 2005) and consistent with this report, it was observed that knockdown of c-Myc in primary myoblasts leads to decreased TFAM promoter activity (FIG. 16E). Mutation of the c-Myc consensus sequence, CACGTG, present in the TFAM promoter decreased the promoter activity by about half of the full length promoter (FIG. 16F). […] Next it was tested whether c-Myc binding site was required for SIRT1's ability to induce TFAM promoter activity. Overexpression of SIRT1 in primary myoblasts lead to an increase in the full length TFAM promoter activity, however disruption of c-Myc binding site was sufficient to completely prevent the ability of SIRT1 to induce TFAM promoter activity (FIG. 16H). […]
# [1] = tested on: 3- and 24-month-old C57BL/6J mice; assay: NMN treatment of 3- and 24-month-old mice, skeletal muscle readouts; format: in vivo, mouse; settings: NMN 500 mg/kg IP, one week
# Protocol: C57BL/6J mice of 3, 6, 22, 24, or 30 months of age were obtained from the National Institutes of Aging mouse aging colony. Mice were acclimated for at least one-week prior to sacrifice. 3, and 24-month-old mice were given interperitoneal (IP) injections of 500 mg NMN/kg body weight per day or the equivalent volume of PBS for 7 consecutive days at 5:00 pm and 7:00 am on day 8 and sacrificed 4 hr after last injection. All animal studies followed the guidelines of and were approved by the Harvard Institutional Animal Care and Use Committee
# Skeletal muscle mitochondria were isolated as described previously (Frezza et al., Nat. Protoc. 2:287-295 (2007)). Mitochondrial membrane potential, cytochrome c activity and succinate dehydrogenase were determined as described (Brautigan et al., Methods Enzymol. 53:128-164 (1978); Rolo et al., Biochim. Biophys. Acta. 1637:127-132 ([…]); Singer, T. P., Methods Biochem. Anal. 22:123-175 (1974)). ATP content was measured with a commercial kit according to the manufacturer's instructions (Roche).
# NAD^+ from C2C12 cells and skeletal muscle was quantified with a commercially available kit (BioVision) according to the manufacturer's instructions and as described before (Gomes et al., Biochim. Biophys. Acta. 1822:185-195 (2012)).
# To test whether a decline in NAD^+ availability, invokes a pseudohypoxic response in muscle that inhibits mitochondrial function, we treated 3- and 24-month-old C57BL/6J mice for one week by intraperitoneal injection of nicotinamide mononucleotide (NMN) (500 mg/kg body weight), a compound that increases NAD^+ levels in a variety of tissues. After the treatment, levels of cellular NAD^+ in both the young and old mice were approximately 2-fold higher, such that the treated 24-month-old mice resembled the untreated 3-month-olds (FIG. 10A).
# [2] = skeletal muscle, treated old (24-month) mice
SMILES,expression of mitochondrially-encoded ETC genes (C2C12 myoblasts),expression of nuclear-encoded ETC components (C2C12 myoblasts),mtDNA content (C2C12 myoblasts),full length TFAM promoter activity (TFAM promoter),"TFAM promoter activity, c-Myc consensus sequence mutation (TFAM promoter; in the absence of the c-Myc binding site)","expression of HIF-1α target genes (PGK-1, Glut1, PKD1, VEGFa) ([1]; gastrocnemius, qPCR, 24-month-old mice)","HIF-1α in muscle (immunoblot) ([1]; gastrocnemius, 24-month-old mice)","levels of cellular NAD+ ([1]; gastrocnemius, young and old mice, versus untreated)","mitochondrial membrane potential ([1]; isolated skeletal muscle mitochondria, treated old (24-month) mice)","ATP levels [1, 2]","COX activity [1, 2]"
"COC(=O)CNC(=O)C(=O)OC [DMOG, dimethyloxaloylglycine]",specific decline,but not the nuclear-encoded components,specific decline,reduces,does not have an additive effect,,,,,,
"NC(=O)c1ccc[n+]([C@@H]2O[C@H](COP(=O)([O-])O)[C@@H](O)[C@H]2O)c1 [NMN, nicotinamide mononucleotide]",,,,,,suppressed the expression,reversed the age-induced increase,approximately 2 fold,restoration of mitochondrial membrane potential to the levels of the young mice,increases,increases
